Experimental data from PubChem BioAssay (NCI).
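Compound exposure: 48 hours, 5 concentrations, 96-well plates. Here, GI50 denotes the concentration required for 50% inhibition of growth. TGI: concentration producing complete growth inhibition.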

Key:
Assay in all cases: growth of human tumour cells (NCI), 48 h
A498 renal = test system: A498 renal
A549 NSCLC = test system: A549 NSCLC
ACHN renal = test system: ACHN renal
BT-549 breast = test system: BT-549 breast
CAKI-1 renal = test system: CAKI-1 renal
CCRF-CEM leukemia = test system: CCRF-CEM leukemia
DU-145 prostate = test system: DU-145 prostate
HCT-15 colon = test system: HCT-15 colon
HOP-92 NSCLC = test system: HOP-92 NSCLC
HS 578T breast = test system: HS 578T breast
IGROV1 ovarian = test system: IGROV1 ovarian
K-562 leukemia = test system: K-562 leukemia
KM12 colon = test system: KM12 colon
LOX IMVI melanoma = test system: LOX IMVI melanoma
M14 melanoma = test system: M14 melanoma
MALME-3M melanoma = test system: MALME-3M melanoma
MDA-MB-231 breast = test system: MDA-MB-231 breast
MDA-MB-435 = test system: MDA-MB-435
MOLT-4 leukemia = test system: MOLT-4 leukemia
NCI-H226 lung = test system: NCI-H226 lung
NCI-H460 lung = test system: NCI-H460 lung
OVCAR-3 ovarian = test system: OVCAR-3 ovarian
OVCAR-8 ovarian = test system: OVCAR-8 ovarian
PC-3 prostate = test system: PC-3 prostate
RPMI-8226 leukemia = test system: RPMI-8226 leukemia
SF-295 CNS = test system: SF-295 CNS
SF-539 CNS = test system: SF-539 CNS
SK-MEL-5 melanoma = test system: SK-MEL-5 melanoma
SK-OV-3 ovarian = test system: SK-OV-3 ovarian
SN12C renal = test system: SN12C renal
SR leukemia = test system: SR leukemia
SW-620 colon = test system: SW-620 colon
TK-10 renal = test system: TK-10 renal
U251 CNS = test system: U251 CNS
UACC-257 melanoma = test system: UACC-257 melanoma
UACC-62 melanoma = test system: UACC-62 melanoma
786-0 renal = test system: 786-0 renal
COLO 205 colon = test system: COLO 205 colon
HCC-2998 colon = test system: HCC-2998 colon
HCT-116 colon = test system: HCT-116 colon
HL-60(TB) leukemia = test system: HL-60(TB) leukemia
HOP-62 NSCLC = test system: HOP-62 NSCLC
HT29 colon = test system: HT29 colon
MCF7 breast = test system: MCF7 breast
NCI-H522 lung = test system: NCI-H522 lung
NCI/ADR-RES ovarian = test system: NCI/ADR-RES ovarian
OVCAR-4 ovarian = test system: OVCAR-4 ovarian
OVCAR-5 ovarian = test system: OVCAR-5 ovarian
RXF 393 renal = test system: RXF 393 renal
SF-268 CNS = test system: SF-268 CNS
SK-MEL-2 melanoma = test system: SK-MEL-2 melanoma
SK-MEL-28 melanoma = test system: SK-MEL-28 melanoma
SNB-19 CNS = test system: SNB-19 CNS
SNB-75 CNS = test system: SNB-75 CNS
UO-31 renal = test system: UO-31 renal

c1ccc2c(c1)ccc1cc3cc(NCCCCNc4ccc5nc6c(ccc7ccccc76)cc5c4)ccc3nc12
TGI (A498 renal): 2.43 µM | TGI (A549 NSCLC): 2.84 µM | TGI (ACHN renal): 2.68 µM | TGI (BT-549 breast): 4.06 µM | TGI (CAKI-1 renal): 3.54 µM | TGI (CCRF-CEM leukemia): 2.29 µM | TGI (DU-145 prostate): 2.67 µM | TGI (HCT-15 colon): 2.01 µM | TGI (HOP-92 NSCLC): 4.09 µM | TGI (HS 578T breast): 4.25 µM | TGI (IGROV1 ovarian): 2.99 µM | TGI (K-562 leukemia): 3.55 µM | TGI (KM12 colon): 0.532 µM | TGI (LOX IMVI melanoma): 3.43 µM | TGI (M14 melanoma): 3.29 µM | TGI (MALME-3M melanoma): 3.16 µM | TGI (MDA-MB-231 breast): 0.348 µM | TGI (MDA-MB-435): 3.45 µM | TGI (MOLT-4 leukemia): 0.418 µM | TGI (NCI-H226 lung): 3.24 µM | TGI (NCI-H460 lung): 0.53 µM | TGI (OVCAR-3 ovarian): 4.06 µM | TGI (OVCAR-8 ovarian): 0.303 µM | TGI (PC-3 prostate): 2.67 µM | TGI (RPMI-8226 leukemia): 1.48 µM | TGI (SF-295 CNS): 3.03 µM | TGI (SF-539 CNS): 2.88 µM | TGI (SK-MEL-5 melanoma): 2.67 µM | TGI (SK-OV-3 ovarian): 6.34 µM | TGI (SN12C renal): 2.7 µM | TGI (SR leukemia): 0.043 µM | TGI (SW-620 colon): 0.405 µM | TGI (TK-10 renal): 3.18 µM | TGI (U251 CNS): 0.374 µM | TGI (UACC-257 melanoma): 3.11 µM | TGI (UACC-62 melanoma): 3.04 µM

Cc1ncc([N+](=O)[O-])n1CCOc1ccc(C(=O)/C=C/c2ccc(C(F)(F)F)cc2)cc1
GI50 (786-0 renal): 1.87 µM | TGI (786-0 renal): 3.54 µM | GI50 (A498 renal): 6.57 µM | TGI (A498 renal): 20.2 µM | GI50 (A549 NSCLC): 2.42 µM | TGI (A549 NSCLC): 8.5 µM | GI50 (ACHN renal): 2.77 µM | TGI (ACHN renal): 9.14 µM | GI50 (BT-549 breast): 4.64 µM | TGI (BT-549 breast): 17 µM | GI50 (CAKI-1 renal): 2 µM | TGI (CAKI-1 renal): 5.25 µM | GI50 (CCRF-CEM leukemia): 2.02 µM | TGI (CCRF-CEM leukemia): 6 µM | GI50 (COLO 205 colon): 2.11 µM | TGI (COLO 205 colon): 4.67 µM | GI50 (DU-145 prostate): 3.56 µM | TGI (DU-145 prostate): 11.9 µM | GI50 (HCC-2998 colon): 5.85 µM | TGI (HCC-2998 colon): 18.3 µM | GI50 (HCT-116 colon): 1.65 µM | TGI (HCT-116 colon): 3.34 µM | GI50 (HCT-15 colon): 1.82 µM | TGI (HCT-15 colon): 4.09 µM | GI50 (HL-60(TB) leukemia): 2.91 µM | TGI (HL-60(TB) leukemia): 11.4 µM | GI50 (HOP-62 NSCLC): 2.53 µM | TGI (HOP-62 NSCLC): 7.29 µM | GI50 (HS 578T breast): 5.2 µM | TGI (HS 578T breast): 33.3 µM | GI50 (HT29 colon): 1.99 µM | TGI (HT29 colon): 4.23 µM | GI50 (IGROV1 ovarian): 2 µM | TGI (IGROV1 ovarian): 4.13 µM | GI50 (K-562 leukemia): 1.53 µM | TGI (K-562 leukemia): 3.83 µM | GI50 (KM12 colon): 2.01 µM | TGI (KM12 colon): 4.22 µM | GI50 (LOX IMVI melanoma): 2.21 µM | TGI (LOX IMVI melanoma): 5.6 µM | GI50 (M14 melanoma): 3.85 µM | TGI (M14 melanoma): 14.8 µM | GI50 (MCF7 breast): 1.7 µM | TGI (MCF7 breast): 4.01 µM | GI50 (MDA-MB-231 breast): 3.53 µM | TGI (MDA-MB-231 breast): 15.5 µM | GI50 (MDA-MB-435): 3.56 µM | TGI (MDA-MB-435): 13.9 µM | GI50 (MOLT-4 leukemia): 2.17 µM | TGI (MOLT-4 leukemia): 6.29 µM | GI50 (NCI-H226 lung): 4.25 µM | TGI (NCI-H226 lung): 20.4 µM | GI50 (NCI-H460 lung): 4.09 µM | TGI (NCI-H460 lung): 15 µM | GI50 (NCI-H522 lung): 2.55 µM | TGI (NCI-H522 lung): 7.74 µM | GI50 (NCI/ADR-RES ovarian): 2.76 µM | TGI (NCI/ADR-RES ovarian): 9.29 µM | GI50 (OVCAR-3 ovarian): 2.37 µM | TGI (OVCAR-3 ovarian): 5.7 µM | GI50 (OVCAR-4 ovarian): 2.99 µM | TGI (OVCAR-4 ovarian): 14.6 µM | GI50 (OVCAR-5 ovarian): 2.93 µM | TGI (OVCAR-5 ovarian): 14.4 µM | GI50 (OVCAR-8 ovarian): 2.09 µM | TGI (OVCAR-8 ovarian): 5.57 µM | GI50 (PC-3 prostate): 2.25 µM | TGI (PC-3 prostate): 12.2 µM | GI50 (RPMI-8226 leukemia): 1.91 µM | TGI (RPMI-8226 leukemia): 4.37 µM | GI50 (RXF 393 renal): 4.54 µM | TGI (RXF 393 renal): 17.6 µM | GI50 (SF-268 CNS): 2.72 µM | TGI (SF-268 CNS): 8.49 µM | GI50 (SF-295 CNS): 3.47 µM | TGI (SF-295 CNS): 13.8 µM | GI50 (SF-539 CNS): 1.65 µM | TGI (SF-539 CNS): 3.07 µM | GI50 (SK-MEL-2 melanoma): 3.43 µM | TGI (SK-MEL-2 melanoma): 13.6 µM | GI50 (SK-MEL-28 melanoma): 10.2 µM | TGI (SK-MEL-28 melanoma): 21.9 µM | GI50 (SK-MEL-5 melanoma): 6.1 µM | TGI (SK-MEL-5 melanoma): 20.3 µM | GI50 (SK-OV-3 ovarian): 4.13 µM | TGI (SK-OV-3 ovarian): 15.3 µM | GI50 (SN12C renal): 3.03 µM | TGI (SN12C renal): 11.6 µM | GI50 (SNB-19 CNS): 3.34 µM | TGI (SNB-19 CNS): 15.7 µM | GI50 (SNB-75 CNS): 2.57 µM | TGI (SNB-75 CNS): 12.8 µM | GI50 (SR leukemia): 1.97 µM | TGI (SR leukemia): 5.5 µM | GI50 (SW-620 colon): 1.76 µM | TGI (SW-620 colon): 4.03 µM | GI50 (U251 CNS): 1.51 µM | TGI (U251 CNS): 3.08 µM | GI50 (UACC-257 melanoma): 3.6 µM | TGI (UACC-257 melanoma): 16.5 µM | GI50 (UACC-62 melanoma): 4.73 µM | TGI (UACC-62 melanoma): 17.6 µM | GI50 (UO-31 renal): 1.48 µM | TGI (UO-31 renal): 2.87 µM
